Columns and labels:
[1] = system: AMBRA1-DIC interaction; experiment: Co-immunoprecipitation of AMBRA1 with dynein intermediate chain (DIC) after microtubule disruption; type: cell-based, human; conditions: drugs which interfere with microtubule polymerisation
Procedure: To this end, coimmunoprecipitation experiments were performed in 2F cells, using an antibody specific for the dynein intermediate chain (DIC). It was observed that, under control conditions, AMBRA1 is associated with DIC and is therefore part of the wider dynein machinery (FIG. 2b, third lane). […] DIC immunodepletion experiments confirmed that AMBRA1 is still associated with DLC1 after being released from DIC. On the other hand, only a fraction of DLC1 interacts with AMBRA1, since most DLC1 is still present in the complex, where it plays alternative functions (FIG. 2b).
It was then checked whether disruption of the microtubule network could interfere with the dynamics of AMBRA1 binding to the dynein motor complex.
In immunoprecipitation experiments, cells or tissues were lysed in HEMG buffer (25 mM Hepes pH 8.0, 100 mM NaCl, 25 mM MgCl2, 0.5% Triton X-100, 0.1 mM EDTA 10% glycerol) plus protease and phosphatase inhibitors (Protease inhibitor cocktail plus 1mM Sodium Fluoride, 1 mM Sodium orthovanadate, 1 mM Sodium molibdate; Sigma-Aldrich). […]

[2] = target: MyD88 (Homo sapiens, UniProt Q99836); conditions: Loiarro et al., J. Leukocyte Biology 2007; cited from earlier work
[3] = system: HEK293 cells; experiment: Autophagy induction by peptides in HEK293 cells, Western blot of LC3 and p62; type: cell-based; conditions: 1-16 hours; for level of autophagy induced by the treatment: peptide 100-200 μM in culture medium, Western blot of LC3 and p62
Description: In order to deregulate the AMBRA1-DLC1 interaction, three peptides (SEQ ID NO:1, SEQ ID NO:2 and SEQ ID NO:3) were selected for their likelihood to maintain the α-helix structure. SEQ ID NO:3 and SEQ ID NO:1 presented substitutions of the neutral residues of leucine into lysine, to increase the charge of the peptides (FIG. 5). The three peptides were synthesized in vitro with the addition of 11 arginine residues at the N-terminus and they were covalently conjugated with the FITC fluorochrome. The arginine residues allow an efficient incorporation of the peptides within the cells, whereas the FITC allows visualization of the peptides inside the cells and permit to monitor their stability upon time. Increasing doses of the peptides, respectively SEQ ID NO:3, SEQ ID NO:1 and SEQ ID NO:2 (100-200 μM) were added to the culture medium of HEK293 cells for increasing time (1-16 hours). The level of autophagy induced by the treatment was monitored by Western blot analyses of known markers of this process, such as LC3 and p62. […] Although limited, this effect is somewhat more desirable than stronger effects, because it avoids massive autophagy that would likely results in cell death in vivo.
Proteins were separated on NuPAGE Bis-Tris gel (Invitrogen) and electroblotted onto nitrocellulose (Protran, Schleicher & Schuell) or PVDF (Millipore) membranes. Blots were incubated with primary antibodies in 5% non-fat dry milk in TBS plus 0,1% Tween20 overnight at 4° C. Detection was achieved using horseradish peroxidase-conjugate secondary antibody (Biorad) and visualised with ECL plus (Amersham Bioscience).

[4] = target: AMBRA1 full length (human, wild type) (UniProt Q9C0C7)
Sequence of AMBRA1 full length (human, wild type) (Q9C0C7 other isoform, or with tags, fused parts or gaps): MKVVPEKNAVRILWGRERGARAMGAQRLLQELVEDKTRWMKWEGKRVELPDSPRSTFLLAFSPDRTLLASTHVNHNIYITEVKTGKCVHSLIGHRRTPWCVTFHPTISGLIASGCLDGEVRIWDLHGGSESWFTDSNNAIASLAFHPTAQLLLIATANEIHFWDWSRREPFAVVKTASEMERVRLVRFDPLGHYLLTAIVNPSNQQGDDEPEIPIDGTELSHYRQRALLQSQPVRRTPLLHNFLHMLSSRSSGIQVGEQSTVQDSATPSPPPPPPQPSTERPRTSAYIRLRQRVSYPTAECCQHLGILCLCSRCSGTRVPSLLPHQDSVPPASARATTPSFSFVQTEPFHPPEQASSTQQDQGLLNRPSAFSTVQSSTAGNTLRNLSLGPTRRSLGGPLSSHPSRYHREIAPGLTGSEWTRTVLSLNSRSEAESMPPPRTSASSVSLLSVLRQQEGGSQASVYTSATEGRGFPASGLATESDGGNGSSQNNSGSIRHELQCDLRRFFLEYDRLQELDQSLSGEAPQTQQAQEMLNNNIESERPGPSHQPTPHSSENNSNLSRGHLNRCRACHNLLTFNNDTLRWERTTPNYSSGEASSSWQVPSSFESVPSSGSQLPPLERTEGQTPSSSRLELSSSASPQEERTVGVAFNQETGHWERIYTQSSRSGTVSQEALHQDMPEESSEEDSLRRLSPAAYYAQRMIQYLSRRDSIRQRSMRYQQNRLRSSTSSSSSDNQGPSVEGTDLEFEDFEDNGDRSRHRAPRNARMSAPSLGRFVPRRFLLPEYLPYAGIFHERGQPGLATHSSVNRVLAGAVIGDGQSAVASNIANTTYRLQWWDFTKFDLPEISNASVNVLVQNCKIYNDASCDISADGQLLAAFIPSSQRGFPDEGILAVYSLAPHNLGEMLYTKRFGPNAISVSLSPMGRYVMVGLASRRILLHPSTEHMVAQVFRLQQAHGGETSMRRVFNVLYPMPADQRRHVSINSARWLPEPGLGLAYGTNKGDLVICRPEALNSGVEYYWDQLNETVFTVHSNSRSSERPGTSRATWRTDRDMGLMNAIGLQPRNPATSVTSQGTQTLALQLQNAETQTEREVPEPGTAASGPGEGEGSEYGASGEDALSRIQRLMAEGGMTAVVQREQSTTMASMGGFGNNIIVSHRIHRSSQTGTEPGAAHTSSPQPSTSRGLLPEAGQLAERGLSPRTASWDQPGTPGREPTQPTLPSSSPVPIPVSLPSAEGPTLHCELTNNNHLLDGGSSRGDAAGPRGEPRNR

Sequence of MyD88 (Q99836 whole entry, species assumed): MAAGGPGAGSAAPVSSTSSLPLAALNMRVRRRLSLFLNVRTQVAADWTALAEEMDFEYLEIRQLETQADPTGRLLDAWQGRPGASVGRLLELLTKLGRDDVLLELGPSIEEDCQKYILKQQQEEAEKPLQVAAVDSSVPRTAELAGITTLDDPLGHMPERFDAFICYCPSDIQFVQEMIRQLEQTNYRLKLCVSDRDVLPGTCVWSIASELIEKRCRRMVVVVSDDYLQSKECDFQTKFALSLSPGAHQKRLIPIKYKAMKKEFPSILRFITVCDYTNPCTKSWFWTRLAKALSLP

| Molecule | AMBRA1-DIC interaction [1] | level of autophagy induced by the treatment [3] | other results |
| --- | --- | --- | --- |
| COC(=O)Nc1nc2ccc(C(=O)c3cccs3)cc2[nH]1 [Nocodazole] | did not impair |  |  |
| NC(=O)[C@H]1CCS[C@@H]2C[C@]3(CCCN3C(=O)Cc3ccc(NC(=O)COc4ccc(Cl)cc4Cl)cc3)C(=O)N12 [ST2825] |  |  | activity and specificity of inhibition compared with the original MyD88 inhibitory peptide [2]: maintained the same activity and specificity of inhibition |
| CC[C@]1(O)C[C@@H]2CN(CCc3c([nH]c4ccccc34)[C@@](C(=O)OC)(c3cc4c(cc3OC)N(C)[C@H]3[C@@](O)(C(=O)OC)[C@H](OC(C)=O)[C@]5(CC)C=CCN6CC[C@]43[C@@H]65)C2)C1 [Vinblastine] | did not impair |  |  |
| SEQ ID NO:1: Peptide with TQT triplet followed by α-helix residues; leucine residues substituted into lysine to increase charge (SQGTQTKAKQK; listed as Homo sapiens) |  | induced an increase in autophagy | p62 protein levels ([3]; 100-200 μM, Western blot (FIG. 6A)): decrease; shorter isoform of LC3 ([3]; 100-200 μM, Western blot (data not shown)): increase |
| SEQ ID NO:3: Peptide selected to maintain α-helix structure; leucine residues substituted into lysine to increase charge (TQTKAKQKQNAETQTER; listed as Homo sapiens) |  | not so effective at the doses used |  |
| ULK1 wild type, myc-tagged (immunopurified complex) |  |  | in vitro kinase assay (32P labelling, autoradiography) [4]: AMBRA1 is phosphorylated by an ULK1 immunopurified complex |

From patent US20110281804A1, “PEPTIDIC AND PEPTIDOMIMETIC COMPOUNDS FOR REGULATING AUTOPHAGY” (FONDAZIONE SANTA LUCIA, priority 2008, published 2011)
